Laboratory results from patent US6905861B2, “D-aminoacylases, method for producing the same, and method for producing D-amino acids using the same” (Daicel Chemical Industries, Ltd., priority 1998, dated 2005).

Experiments:
[1] = system: Hypomyces mycophilus IFO 6785 strain; experiment: D-amino acid production and optical purity from N-acetyl-DL-amino acid by washed fungal cells; format: cell-based; conditions: Hypomyces mycophilus IFO 6785 cells; 0.1% substrate, pH 7.5, 30° C., 24 hours
Experimental: (§1) A platinum loopful of Hypomyces rosellus IFO 6911 strain, Hypomyces sepulcralis IFO 9102 strain, or Hypomyces mycophilus IFO 6785 strain was inoculated into 25 ml of YM medium (containing 0.3% yeast extract, 0.3% malt extract, 0.5% peptone, and 2.0% glucose; pH 6.0) in a 500-ml shouldered flask. The fungi were shake-cultured at 24° C. for 3 days. After culturing, a 5-ml aliquot of the culture medium was centrifuged in a refrigerated centrifuge to collect the fungal cells. The cells were washed with physiological saline solution (5 ml), and collected by centrifugation again. A reaction solution (containing 0.1% N-acetyl-DL-amino acid shown in Table 2 below in Tris-HCl buffer, pH 7.5) was added to the cells thus collected. The mixture was incubated in a 5-ml test tube with shaking at 30° C. for 24 hours. D-Amino acid thus produced was assayed by high-performance liquid chromatography (column, CROWNPAK CR (Daicel Chemical); column temperature, 26° C.; mobile phase, HClO4 aqueous solution pH 2.0; flow rate, 1 ml/min; and detection, 200 nm) and examined for the optical purity.

[2] = system: Hypomyces rosellus IFO 6911 strain; experiment: as above; format: cell-based; conditions: Hypomyces rosellus IFO 6911 cells; 0.1% substrate, pH 7.5, 30° C., 24 hours
Experimental: as §1

[3] = system: Hypomyces sepulcralis IFO 9102 strain; experiment: as above; format: cell-based; conditions: Hypomyces sepulcralis IFO 9102 cells; 0.1% substrate, pH 7.5, 30° C., 24 hours
Experimental: as §1

[4] = system: D-aminoacylase (crude enzyme) of Auricularia auriculajudae IFO 5949; experiment: Crude enzyme activity for each N-Ac-D-amino acid substrate; format: biochemical; conditions: Auricularia auriculajudae IFO 5949 crude enzyme; 20 mM substrate, 1 mM CoCl2, 50 mM phosphate buffer pH 7.0
Experimental: (§2) Auricularia auriculajudae IFO 5949, Pythium aphanidermaatum IFO 7030, and Menisporopsis novaezelandiae IFO 9179 were each inoculated into sterilized media (100 ml each) (Czapek Dox Broth for IFO 5949, YM1 medium for IFO 7030, and POTATO DEXTROSE BROTH for IFO 9179) in 500-ml Erlenmeyer flasks. The fungi were cultured on a rotary shaker at 210 rpm at 24° C. for 7 days and collected by centrifugation using a […] centrifuge with a RPR10-2 rotor at 8,000 rpm (12,500×g) for 20 min. […] Disrupted cells thus obtained were centrifuged using a […] centrifuge with a RPR20-2 rotor at 17,500 rpm (38,000×g) for 30 min at 4° C. to obtain the supernatant as the crude enzyme. […] Figures in the table denote the amount (mM) of D-amino acids produced from the corresponding N-acetyl-D-amino acids. The D-aminoacylase activity was detected in all the strains tested, producing D-amino acid from the corresponding N-acetyl-D-amino acid.

[5] = system: D-aminoacylase (crude enzyme) of Menisporopsis novaezelandiae IFO 9179; experiment: as above; format: biochemical; conditions: Menisporopsis novaezelandiae IFO 9179 crude enzyme; 20 mM substrate, 1 mM CoCl2, 50 mM phosphate buffer pH 7.0
Experimental: as §2

[6] = system: D-aminoacylase (crude enzyme) of Pythium aphanidermaatum IFO 7030; experiment: as above; format: biochemical; conditions: Pythium aphanidermaatum IFO 7030 crude enzyme; 20 mM substrate, 1 mM CoCl2, 50 mM phosphate buffer pH 7.0
Experimental: as §2

[7] = system: D-aminoacylase; experiment: Substrate specificity of purified D-aminoacylase (TNBS method); format: biochemical, Hypomyces mycophilus IFO 6785; conditions: for percentage of the specific activity compared with that for N-acetyl-D-methionine taken as 100%, D-enantiomer: 20 mM substrate, 50 mM Tris-HCl pH 7.5, 30° C., 20 min; for activity of the enzyme for the substrate (in words): summary of Table 5
Experimental: The enzyme activity was assayed by determining the amount of amino acid produced using the TNBS method and the HPLC method. In the TMBS method, 100 mM Na2B4O7 (0.5 ml) was added to a sample solution containing amino acid (0.5 ml), 20 μl of 110 mM TNBS (trinitrobenzenesulfonic acid) was then added, and the resulting mixture was quickly stirred. After 5 min, 100 mM NaH2PO4 containing 1.5 mM Na2SO3 (2 ml) was added to the reaction mixture to terminate the color reaction, and the absorbance at 420 nm was measured. HPLC was performed by subjecting a sample solution containing amino acid to high-performance liquid chromatography using an ODS column (column, Wakosil II 5C18 (4.6 dia.×250 mm) (Wako Pure Chemical); eluent, CH3CN/50 mM KH2PO4. H3PO4 (pH 2.5)=2:8; detection, A280 nm; and flow rate, 1.0 ml/min). The retention times were 3.5 min for D-tryptophan and 9.8 min for N-acetyl-D-tryptophan. Using D-tryptophan as the assay standard, one unit (or U) of the enzyme was defined as the amount of the enzyme required to produce 1 μmol of D-tryptophan at 30° C. for 1 min.
Substrate specificity of the enzyme was expressed as the percentage of the specific activity compared with that for N-acetyl-D-methionine taken as 100%. N-chloroacetyl-D-phenylalanine, N-acetyl-D-valine, N-acetyl-D-phenylalanine, N-acetyl-D-tryptophan, N-acetyl-D-leucine, N-acetyl-L-valine, N-acetyl-L-phenylalanine, N-acetyl-L-tryptophan, and N-acetyl-L-leucine substrates were used for the comparison. The enzyme reaction was performed in 50 mM Tris-HCl (pH 7.5) containing 1 µl of the enzyme solution and 20 mM of each substrate (total volume 1.0 ml) at 30° C. for 20 min, and terminated by adding 0.5 ml of a TCA reaction terminating solution according to Tsai et al. (consisting of 110 mM trichloroacetic acid, 220 mM sodium acetate, and 330 mM acetic acid). The enzyme activity was assayed by the TNBS method as described in Example 4(2).

[8] = system: Fusarium solani IFO 9974; experiment: D-amino acid production from N-acetyl-D-amino acid by washed fungal cells; format: cell-based; conditions: Fusarium solani IFO 9974 cells; 0.1% substrate, Tris-HCl pH 7.5, 30° C., 24 hours
Experimental: (§3) A platinum loopful of Hypomyces aurantius IFO 6847 strain, Hypomyces broomeanus IFO 9164 strain, Hypomyces rosellus IFO 6911 strain, Hypomyces chrysospermus IFO 6817 strain, Hypomyces sepulcralis IFO 9102 strain, Hypomyces subiculosus IFO 6892 strain, Hypomyces mycophilus ATCC 76474 or IFO 6785 strain, or Fusarium solani IFO 9974 or IFO 9975 strain was inoculated into 25 ml of YM medium (containing 0.3% yeast extract, 0.3% malt extract, 0.5% peptone, and 2.0% glucose, pH 6.0) in a 500-ml shouldered flask. The fungi were shake-cultured at 24° C. for 3 days. After culturing, a 5-ml aliquot of the culture medium was centrifuged in a refrigerated centrifuge to collect the fungal cells. The cells were washed with physiological saline solution (5 ml) and collected by centrifugation again. A reaction solution (containing 0.1% N-acetyl-D-amino acid shown in Table 1 below in Tris-HCl buffer, pH 7.5) was then added to the cells thus collected. The mixture was incubated in a 5-ml test tube with shaking at 30° C. for 24 hours.
(§4) D-Amino acid thus produced was determined by high-performance liquid chromatography (column, CROWNPAK CR (Daicel Chemical); column temperature, 26° C.; cooled in ice for only valine; mobile phase, HClO4 aqueous solution, pH 2.0; flow rate, 1 ml/min; and detection, 200 nm).

[9] = system: Fusarium solani IFO 9975 strain; experiment: as above; format: cell-based; conditions: Fusarium solani IFO 9975 cells; 0.1% substrate, Tris-HCl pH 7.5, 30° C., 24 hours
Experimental: as §3, §4

[10] = system: Hypomyces aurantius IFO 6847 strain; experiment: as above; format: cell-based; conditions: Hypomyces aurantius IFO 6847 cells; 0.1% substrate, Tris-HCl pH 7.5, 30° C., 24 hours
Experimental: as §3, §4

[11] = system: Hypomyces broomeanus IFO 9164 strain; experiment: as above; format: cell-based; conditions: Hypomyces broomeanus IFO 9164 cells; 0.1% substrate, Tris-HCl pH 7.5, 30° C., 24 hours
Experimental: as §3, §4

[12] = system: Hypomyces chrysospermus IFO 6817 strain; experiment: as above; format: cell-based; conditions: Hypomyces chrysospermus IFO 6817 cells; 0.1% substrate, Tris-HCl pH 7.5, 30° C., 24 hours
Experimental: as §3, §4

[13] = system: Hypomyces mycophilus ATCC 76474; experiment: as above; format: cell-based; conditions: Hypomyces mycophilus ATCC 76474 cells; 0.1% substrate, Tris-HCl pH 7.5, 30° C., 24 hours
Experimental: as §3, §4

[14] = system: Hypomyces mycophilus IFO 6785 strain; experiment: as above; format: cell-based; conditions: Hypomyces mycophilus IFO 6785 cells; 0.1% substrate, Tris-HCl pH 7.5, 30° C., 24 hours
Experimental: as §3, §4

[15] = system: Hypomyces rosellus IFO 6911 strain; experiment: as above; format: cell-based; conditions: Hypomyces rosellus IFO 6911 cells; 0.1% substrate, Tris-HCl pH 7.5, 30° C., 24 hours
Experimental: as §3, §4

[16] = system: Hypomyces sepulcralis IFO 9102 strain; experiment: as above; format: cell-based; conditions: Hypomyces sepulcralis IFO 9102 cells; 0.1% substrate, Tris-HCl pH 7.5, 30° C., 24 hours
Experimental: as §3, §4

[17] = system: Hypomyces subiculosus IFO 6892 strain; experiment: as above; format: cell-based; conditions: Hypomyces subiculosus IFO 6892 cells; 0.1% substrate, Tris-HCl pH 7.5, 30° C., 24 hours
Experimental: as §3, §4

| SMILES | D-amino acid produced from N-acetyl-DL-amino acid [1] [mg/mL] | D-amino acid produced from N-acetyl-DL-amino acid [2] [mg/mL] | D-amino acid produced from N-acetyl-DL-amino acid [3] [mg/mL] | amount of D-amino acids produced from the corresponding N-acetyl-D-amino acids [4] [mM] | amount of D-amino acids produced from the corresponding N-acetyl-D-amino acids [5] [mM] | amount of D-amino acids produced from the corresponding N-acetyl-D-amino acids [6] [mM] | percentage of the specific activity compared with that for N-acetyl-D-methionine taken as 100%, D-enantiomer [7] [%] | D-amino acid produced from N-acetyl-D-amino acid [8] [mg/mL] | D-amino acid produced from N-acetyl-D-amino acid [9] [mg/mL] | D-amino acid produced from N-acetyl-D-amino acid [10] [mg/mL] | D-amino acid produced from N-acetyl-D-amino acid [11] [mg/mL] | D-amino acid produced from N-acetyl-D-amino acid [12] [mg/mL] | D-amino acid produced from N-acetyl-D-amino acid [13] [mg/mL] | D-amino acid produced from N-acetyl-D-amino acid [14] [mg/mL] | D-amino acid produced from N-acetyl-D-amino acid [15] [mg/mL] | D-amino acid produced from N-acetyl-D-amino acid [16] [mg/mL] | D-amino acid produced from N-acetyl-D-amino acid [17] [mg/mL] | activity of the enzyme for the substrate (in words) [7] |
| --- | --- | --- | --- | --- | --- | --- | --- | --- | --- | --- | --- | --- | --- | --- | --- | --- | --- | --- |
| CC(=O)NC(Cc1ccccc1)C(=O)O (racemic) [N-acetyl-DL-phenylalanine] | 0.16 | 0.21 | 0.12 |  |  |  |  |  |  |  |  |  |  |  |  |  |  |  |
| CC(=O)NC(Cc1c[nH]c2ccccc12)C(=O)O (racemic) [N-acetyl-DL-tryptophan] | 0.10 | 0.24 | 0.13 |  |  |  |  |  |  |  |  |  |  |  |  |  |  |  |
| CC(=O)N[C@H](C)C(=O)O [N-acetyl-D-alanine, N-Acetyl-D-alanine] |  |  |  | 1.46 | 0.09 | 0.29 | 0 |  |  |  |  |  |  |  |  |  |  |  |
| CC(=O)N[C@H](Cc1ccccc1)C(=O)O [N-acetyl-D-phenylalanine] |  |  |  | 4.34 | 0.44 |  | 298 | 0.001 | 0.002 | 0.005 | 0.004 | 0.003 | 0.003 | 0.65 | 0.06 | 0.15 | 0.05 | especially active |
| CC(=O)N[C@H](Cc1c[nH]c2ccccc12)C(=O)O [N-acetyl-D-tryptophan] |  |  |  | 2.44 | 1.30 |  | 109 | 0 | 0.001 | 0.008 | 0.002 | 0.001 | 0.27 | 0.40 | 0.08 | 0.01 | 0.002 | very active |
| CC(=O)N[C@@H](C(=O)O)C(C)C [N-acetyl-D-valine] |  |  |  | 3.33 | 0.16 |  | 17.5 | 0 | 0.22 | 0.14 | 0.18 | 3.16 | 0.11 | 0.98 | 2.73 | 3.19 | 0.23 | somewhat active |
